Experimental data taken from patent publication US11352341B2, “2H-indazole derivatives as CDK4 and CDK6 inhibitors and therapeutic uses thereof” (Beta Pharma, Inc., priority 2018, dated 2022).
Where a name gives a salt, the structure may show the parent alone.

What was measured:
Format in all cases: biochemical
Conditions in all cases: RB Protein 3 μM substrate, 33P-ATP 1 μM, 10-dose IC50 mode, 3-fold dilution starting at 0.1 μM
CDK4/cyclin D1 = CDK4/cyclin D1 (Homo sapiens, UniProt P11802); test: Radiometric 33P-ATP filter-binding kinase assay, CDK4/cyclin D1
Procedure: (§1) CDK4/cyclin D1, CDK4/cyclin D3, CDK6/cyclin D1, and CDK6/cyclin D3 were added to freshly prepared substrate solution (RB Protein, 3 μM) which was in freshly made reaction buffer (20 mM Hepes (pH 7.5), 10 mM MgCl2, 1 mM EGTA, 0.02% Brij35, 0.02 mg/mL BSA, 0.1 mM Na3VO4, 2 mM DTT, 1% DMSO) and gently mixed, respectively. Compound 1.HCl was tested in a 10-dose IC50 mode with 3-fold dilution starting at 0.1 μM. Compound 1.HCl was prepared and diluted in DMSO and was delivered into the kinases/substrate reaction mixture by Acoustic technology (Echo550; nanoliter range), then incubated for 20 min at room temperature. Then 33P-ATP (1 μM) was added into the reaction mixture to initiate the reaction. The kinase reaction was incubated at room temperature for 2 hours. The reactions were spotted onto P81 ion-exchange paper and radioactivity was detected by filter-binding method. The kinase activity data were expressed as the percent remaining kinase activity in test samples compared to vehicle (Dimethyl Sulfoxide) reactions. […] HCl were determined for all 4 kinases: CDK4/cyclin D1, CDK4/cyclin D3, CDK6/cyclin D1, and CDK6/cyclin D3 and are shown in Table 2, as compared with those of ethylated counterpart, namely N-(5-((4-ethylpiperazin-1-yl)methyl)pyridin-2-yl)-5-fluoro-4-(3-isopropyl-2-methyl-2H-indazol-5-yl)pyrimidin-2-amine, or compound 37. […]

CDK6/cyclin D1 = CDK6/cyclin D1 (Homo sapiens, UniProt Q00534); test: Radiometric 33P-ATP filter-binding kinase assay, CDK6/cyclin D1
Procedure: as §1

CDK4/cyclin D3 = CDK4/cyclin D3 (Homo sapiens, UniProt P11802); test: Radiometric 33P-ATP filter-binding kinase assay, CDK4/cyclin D3
Procedure: as §1

CDK6/cyclin D3 = CDK6/cyclin D3 (Homo sapiens, UniProt Q00534); test: Radiometric 33P-ATP filter-binding kinase assay, CDK6/cyclin D3
Procedure: as §1

CDK4/cyclin D1, sequence (P11802 whole entry, species assumed): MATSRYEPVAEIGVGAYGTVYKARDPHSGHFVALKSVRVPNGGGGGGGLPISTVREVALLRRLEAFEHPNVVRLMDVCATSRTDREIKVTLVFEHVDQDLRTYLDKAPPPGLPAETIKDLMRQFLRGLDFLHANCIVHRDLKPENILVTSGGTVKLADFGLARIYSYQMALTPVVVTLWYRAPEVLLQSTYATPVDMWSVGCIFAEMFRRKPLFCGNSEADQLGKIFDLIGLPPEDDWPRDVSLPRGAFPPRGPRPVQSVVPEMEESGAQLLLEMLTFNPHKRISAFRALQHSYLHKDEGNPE
CDK4/cyclin D1, sequence (P24385 whole entry partner, species assumed): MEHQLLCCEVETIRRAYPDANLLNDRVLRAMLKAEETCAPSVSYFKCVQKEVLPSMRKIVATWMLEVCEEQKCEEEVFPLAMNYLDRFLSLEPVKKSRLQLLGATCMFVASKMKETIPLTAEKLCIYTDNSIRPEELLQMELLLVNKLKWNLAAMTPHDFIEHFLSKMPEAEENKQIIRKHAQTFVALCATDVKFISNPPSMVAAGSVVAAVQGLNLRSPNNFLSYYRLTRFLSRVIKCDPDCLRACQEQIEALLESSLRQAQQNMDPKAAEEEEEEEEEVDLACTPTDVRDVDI
CDK4/cyclin D3, sequence (P11802 whole entry, species assumed): as the sequence (P11802 whole entry, species assumed) above
CDK4/cyclin D3, sequence (P30281 whole entry partner, species assumed): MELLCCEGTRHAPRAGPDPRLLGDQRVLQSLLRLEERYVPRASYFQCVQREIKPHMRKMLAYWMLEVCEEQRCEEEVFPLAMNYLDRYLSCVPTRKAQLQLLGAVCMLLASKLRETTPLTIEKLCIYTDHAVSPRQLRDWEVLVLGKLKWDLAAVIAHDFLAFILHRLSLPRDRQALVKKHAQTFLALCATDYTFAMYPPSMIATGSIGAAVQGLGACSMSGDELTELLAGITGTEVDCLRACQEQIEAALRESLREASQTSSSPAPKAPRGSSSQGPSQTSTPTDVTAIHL
CDK6/cyclin D3, sequence (Q00534 whole entry, species assumed): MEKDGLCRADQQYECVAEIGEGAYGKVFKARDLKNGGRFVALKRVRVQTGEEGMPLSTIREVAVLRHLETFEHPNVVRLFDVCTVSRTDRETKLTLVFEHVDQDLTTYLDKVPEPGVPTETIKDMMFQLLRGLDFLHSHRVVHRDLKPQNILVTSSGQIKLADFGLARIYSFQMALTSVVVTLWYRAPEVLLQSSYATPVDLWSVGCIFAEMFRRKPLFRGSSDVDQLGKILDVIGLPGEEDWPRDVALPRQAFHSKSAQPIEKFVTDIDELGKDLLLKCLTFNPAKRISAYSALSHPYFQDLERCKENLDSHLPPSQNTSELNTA
CDK6/cyclin D3, sequence (P30281 whole entry partner, species assumed): as the sequence (P30281 whole entry partner, species assumed) above
CDK6/cyclin D1, sequence (Q00534 whole entry, species assumed): as the sequence (Q00534 whole entry, species assumed) above
CDK6/cyclin D1, sequence (P24385 whole entry partner, species assumed): as the sequence (P24385 whole entry partner, species assumed) above

IC50 (CDK4/cyclin D1) | IC50 (CDK6/cyclin D1) | IC50 (CDK4/cyclin D3) | IC50 (CDK6/cyclin D3) | Structure (SMILES)
0.705 nM | 1.11 nM | 3.99 nM | 25.6 nM | CC(C)c1c2cc(-c3nc(Nc4ccc(CN5CCNCC5)cn4)ncc3F)ccc2nn1C [1•HCl, 5-Fluoro-4-(3-isopropyl-2-methyl-2H-indazol-5-yl)-N-(5-(piperazin-1-ylmethyl)pyridin-2-yl)pyrimidin-2-amine hydrochloride]
1.47 nM | 23.8 nM | 1.98 nM | 5.66 nM | CCN1CCN(Cc2ccc(Nc3ncc(F)c(-c4ccc5nn(C)c(C(C)C)c5c4)n3)nc2)CC1 [Compound 37, N-(5-((4-ethylpiperazin-1-yl)methyl)pyridin-2-yl)-5-fluoro-4-(3-isopropyl-2-methyl-2H-indazol-5-yl)pyrimidin-2-amine]
